Measured values published in ChEMBL document CHEMBL1147033, “Novel selective androgen receptor modulators: SAR studies on 6-bisalkylamino-2-quinolinones” (Bioorg Med Chem Lett, 2007).

Legend:
[1] = target: T1, Androgen receptor (Homo sapiens, UniProt P10275)
T1 sequence (P10275 whole entry): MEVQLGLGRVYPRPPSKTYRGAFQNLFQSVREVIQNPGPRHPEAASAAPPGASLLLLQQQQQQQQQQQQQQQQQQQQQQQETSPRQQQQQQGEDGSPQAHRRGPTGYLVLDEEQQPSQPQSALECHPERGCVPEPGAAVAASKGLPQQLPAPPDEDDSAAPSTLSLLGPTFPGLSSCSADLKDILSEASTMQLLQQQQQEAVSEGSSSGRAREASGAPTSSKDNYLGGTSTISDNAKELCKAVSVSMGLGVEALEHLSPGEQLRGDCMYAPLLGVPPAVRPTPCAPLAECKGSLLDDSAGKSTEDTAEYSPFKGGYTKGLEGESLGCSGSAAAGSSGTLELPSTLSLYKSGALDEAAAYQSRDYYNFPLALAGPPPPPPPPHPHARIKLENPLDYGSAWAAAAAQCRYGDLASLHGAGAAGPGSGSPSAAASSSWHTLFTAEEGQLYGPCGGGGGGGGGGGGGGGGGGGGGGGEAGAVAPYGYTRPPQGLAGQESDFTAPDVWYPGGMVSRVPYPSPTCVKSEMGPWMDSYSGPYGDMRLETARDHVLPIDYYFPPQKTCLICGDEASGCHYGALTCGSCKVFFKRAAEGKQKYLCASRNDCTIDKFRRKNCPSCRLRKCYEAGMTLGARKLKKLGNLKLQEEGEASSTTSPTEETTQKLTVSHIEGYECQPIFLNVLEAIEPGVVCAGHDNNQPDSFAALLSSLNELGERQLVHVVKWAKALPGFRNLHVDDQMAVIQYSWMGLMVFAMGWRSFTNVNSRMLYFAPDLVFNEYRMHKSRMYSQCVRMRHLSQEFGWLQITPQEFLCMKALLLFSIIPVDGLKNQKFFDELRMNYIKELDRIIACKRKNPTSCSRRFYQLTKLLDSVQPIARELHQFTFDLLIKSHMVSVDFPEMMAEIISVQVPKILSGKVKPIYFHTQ
Description: Agonist activity at human AR

[2] = target: T1, Androgen receptor; remark: listed apart in the source
Description: Antagonist activity at human AR

[3] = target: T1, Androgen receptor; remark: listed apart in the source
Description: Binding affinity to human AR

Structure (SMILES): O=c1cc(C(F)(F)F)c2cc(N(Cc3ccccc3)CC(F)(F)F)ccc2[nH]1
- EC50 [1]: 27 nM
- IC50 [2]: > 10000 nM
- Ki [3]: 79 nM
